From patent US11951155B2, “Pea-derived peptide with muscle-building effect and preparation method thereof, and drug and use” (Zhongshi Duqing(Shandong) Biotech Co., Ltd, priority 2022, dated 2024) come the findings set out here.

Where “and” joins values, the source holds several entries; their conditions need not be identical. Identical values can stand only once. Ends that are not written are not given here.

For one data set, the system named is C2C12 cells. As to the kind of experiment: C2C12 cell proliferation assay (CCK-8, OD at 450 nm). To be noted: for cell concentration compared with CN group: co-incubated 48 h, 0.4 μg/ml; for OD value, Average value / OD value, Repeated three groups: sample 0.4 μg/ml, OD 450 nm; for OD value, Repeated three groups: single replicates. The format is cell-based. The procedure:
The C2C12 cells in a logarithmic growth phase were inoculated into a 96-well plate; the cells were divided into 4 groups, namely a blank control group (CN, without any peptide fractions), a pea-derived peptide S1 group, a pea-derived peptide S2 group, and a pea-derived peptide S3 group; each treatment group was set to duplicate 3 wells, with approximately 1,000 cells per well. Except for the blank control group, 0.4 μg/ml pea-derived peptide was added to the cells, and 10 μL of a CCK-8 solution was added separately at 0 h, 12 h, 24 h, 36 h, and 48 h, and mixed well; the cells were incubated in a CO2 incubator at 37° C. for 2 h, an OD value was measured using a microplate reader at 450 nm, and a cell proliferation curve was drawn.
The C2C12 cells in a logarithmic growth phase were inoculated into a 96-well plate; the cells were divided into 6 groups, namely a blank control group (CN, without any peptide fractions), and sample groups including a pea-derived peptide PP1 group (PP1), a pea-derived peptide PP2 group (PP2), a pea-derived peptide PP3 group (PP3), a pea-derived peptide PP4 group (PP4), and a pea-derived peptide PP5 group (PP5). Each treatment group was set to 3 duplicate wells, with approximately 1,000 cells per well. A sample having a concentration of 0.4 μg/ml was added to the cells of the sample groups, and 10 μL of a CCK-8 solution was added separately at 0 h, 12 h, 24 h, 36 h, and 48 h, and mixed well; the cells were incubated in a CO2 incubator at 37° C. for 2 h, an OD value was measured using a microplate reader at 450 nm, and a cell proliferation curve was drawn.

Data set [1] deals with IGF-1R, cyclinD1, CDK6, p-AMPK in C2C12 cells. Put plainly: Western blot of growth and proliferation-related proteins in C2C12 cells. To be noted: skeletal muscle cells treated with one peptide alone. The format is cell-based. From the text:
The C2C12 cells in a logarithmic growth phase were inoculated into a 6-well plate at 1×10^6; the cells were divided into 6 groups, namely a blank control group (CN), and sample groups including a pea-derived peptide PP1 group (PP1), a pea-derived peptide PP2 group (PP2), a pea-derived peptide PP3 group (PP3), a pea-derived peptide PP4 group (PP4), and a pea-derived peptide PP5 group (PP5). Each treatment group was set to duplicate 3 wells, with approximately 1,000,000 cells per well; a sample having a concentration of 0.4 μg/ml was added to the cells of the sample groups, and each treatment group was set to 3 duplicate wells. After co-incubating for 24 h, the cells in different treatment groups were collected, fully lysed, and a total protein was extracted, and a protein concentration was determined using a nucleic acid protein analyzer. The protein sample was mixed with a loading buffer thoroughly, denatured at 100° C. for 10 min, and subjected to SDS-PAGE gel electrophoresis. The program included: 80 V for 30 min; 100 V for 80 min. Membrane transfer was conducted, where the membrane transfer procedure was conducted at 100 V for 90 min. After transferring, the sample was placed in a 5% skimmed milk powder, and sealed in a shaker at room temperature for 1 h. GAPDH antibody (1:2000) and PCNA antibody, AMPK antibody, p-AMPK antibody, IGF-1 antibody (1:1000) were added separately, and allowed to stand at 4° C. overnight. A secondary antibody (1:20000) was added, and incubated at room temperature for 1 h. The membrane was washed 3 times with TBST, and a Pierce-enhanced luminescent agent was added, and exposure was conducted by an automatic exposure machine.
On the technique in general: In western blotting, separated proteins are transferred to a membrane and probed.

The subject of another data set is pepsin and trypsin. As to the kind of experiment: In vitro digestion test with pepsin and trypsin. The format is in vitro ADME. To be noted: 500 mg/L; pepsin 20 mg/g pH 2.0 37° C. 90 min, then trypsin 40 mg/g pH 7.5 37° C. 150 min; HPLC or LC-MS. The procedure: A pea-derived peptide aqueous solution and a pea-derived peptide PP2 aqueous solution with a mass concentration of 500 mg/L were prepared separately, pepsin (20 mg/g) was added, a pH value was adjusted to 2.0, and the two aqueous solutions were treated in a water bath at a constant temperature of 37° C. for 90 min. Following the water bath, the pH value was adjusted to 7.5, trypsin (40 mg/g) was added, and the two aqueous solutions were treated in the water bath at a constant temperature of 37° C. for 150 min. Following the water bath, the two solutions were placed in a 95° C. water bath for 5 min to inactivate the enzyme. The samples were freeze-dried and analyzed by HPLC to compare changes in the liquid chromatograms before and after digestion. Also provided were undigested pea-derived peptide and pea-derived peptide digested only by pepsin but not by trypsin.
Pea-derived peptide PP2 was digested in vitro according to the method of Example 4.

For EGSLLLPH, in the data set with C2C12 cells, the “cell concentration compared with CN group” value is reported as “increases significantly”. Moreover, the “OD value, Average value” in the data set with C2C12 cells (treatment time 0 h) is 0.35; with C2C12 cells (treatment time 12 h), 0.53; in the data set with C2C12 cells (treatment time 24 h), 1.26; in the data set on C2C12 cells (treatment time 36 h), 1.73; in the data set with C2C12 cells (treatment time 48 h), 1.95. Further, the “OD value, Repeated three groups” value in the data set on C2C12 cells (treatment time 0 h) is 0.28 and 0.35 and 0.41; with C2C12 cells (treatment time 12 h), 0.52 and 0.66 and 0.42; in the data set on C2C12 cells (treatment time 24 h), 1.24 and 1.07 and 1.48; with C2C12 cells (treatment time 36 h) it was 1.77 and 1.62 and 1.81; in the data set with C2C12 cells (treatment time 48 h), 1.96 and 1.78 and 2.10. For the same substance, in data set [1], the “expression of IGF-1R, cyclinD1, CDK6 and p-AMPK” value (from here on “expression … CDK6 and p-AMPK”) is given as “significantly increase expression”.

LDLPVL [PP2, Leu-Asp-Leu-Pro-Val-Leu]: the “stability after digestion by pepsin and trypsin” value with pepsin and trypsin was “not digested and degraded by the pepsin and trypsin”.

With LLYVIR, the “cell concentration compared with CN group” value in the data set with C2C12 cells is listed as “increases significantly”. The “OD value, Average value” in the data set with C2C12 cells (treatment time 0 h) is given as 0.38; with C2C12 cells (treatment time 12 h), 0.50; in the data set with C2C12 cells (treatment time 24 h) it was 1.34; with C2C12 cells (treatment time 36 h), 1.84; in the data set on C2C12 cells (treatment time 48 h), 2.11. The “OD value, Repeated three groups” value in the data set on C2C12 cells (treatment time 0 h) is 0.36 and 0.52 and 0.27; with C2C12 cells (treatment time 12 h), 0.42 and 0.51 and 0.56; with C2C12 cells (treatment time 24 h) it was 1.08 and 1.62 and 1.32; in the data set on C2C12 cells (treatment time 36 h), 1.95 and 1.83 and 1.74; with C2C12 cells (treatment time 48 h), 2.07 and 2.32 and 1.95. Besides, the “expression … CDK6 and p-AMPK” value in data set [1] is recorded as “significantly increase expression”.

Take NTNYEEIEKVL: the “cell concentration compared with CN group” value in the data set with C2C12 cells is “increases significantly”. Also, the “OD value, Average value” came out at 0.36 in the data set on C2C12 cells (treatment time 0 h); 0.557 in the data set on C2C12 cells (treatment time 12 h); 1.42 in the data set with C2C12 cells (treatment time 24 h); 1.88 with C2C12 cells (treatment time 36 h); 2.12 in the data set with C2C12 cells (treatment time 48 h). Further, the “OD value, Repeated three groups” value is 0.44 and 0.27 and 0.36 in the data set with C2C12 cells (treatment time 0 h); 0.43 and 0.53 and 0.71 in the data set on C2C12 cells (treatment time 12 h); 1.41 and 1.66 and 1.19 in the data set on C2C12 cells (treatment time 24 h); 1.72 and 2.06 and 1.86 in the data set on C2C12 cells (treatment time 36 h); 1.98 and 2.32 and 2.05 in the data set on C2C12 cells (treatment time 48 h). Besides, the “expression … CDK6 and p-AMPK” value in data set [1] was “significantly increase expression”.

In the case of TNYEEIEKVLL, the “cell concentration compared with CN group” value in the data set on C2C12 cells is listed as “increases significantly”. Besides, the “OD value, Average value” turned out to be 0.33 with C2C12 cells (treatment time 0 h); 0.56 in the data set on C2C12 cells (treatment time 12 h); 1.33 in the data set with C2C12 cells (treatment time 24 h); 1.86 in the data set with C2C12 cells (treatment time 36 h); 2.09 with C2C12 cells (treatment time 48 h). Besides, the “OD value, Repeated three groups” value was 0.41 and 0.37 and 0.22 with C2C12 cells (treatment time 0 h); 0.54 and 0.45 and 0.68 with C2C12 cells (treatment time 12 h); 1.31 and 1.06 and 1.62 in the data set with C2C12 cells (treatment time 24 h); 2.03 and 1.67 and 1.89 with C2C12 cells (treatment time 36 h); 1.87 and 2.11 and 2.28 in the data set on C2C12 cells (treatment time 48 h). The “expression … CDK6 and p-AMPK” value in data set [1] was “significantly increase expression”.
